Data on 7 compounds can be found in paper PMC7072677, “Arachidonoylcholine and Other Unsaturated Long-Chain Acylcholines Are Endogenous Modulators of the Acetylcholine Signaling System” (Biomolecules, 2020).

“Also recorded” adds a separate entry of the source. Where two headings read alike, the source gives them in different places.

Series [1] concerns A549 lung cancer cells. Conditions: for decrease of A549 viability: 100 μM, 24 h incubation, MTT; for decrease of cell viability, dose-dependent, maximum: A549 lung cancer cells.
The target in series [2] is T1, human erythrocyte AChE (Homo sapiens, UniProt P22303). Kind of series: Hydrolysis of the substance by AChE (HPLC). Type of series: in vitro ADME. Conditions: 1 mM substance, 0.02 U/mL enzyme, pH 7.5, 25 °C, 40 min. As to the method: (§1) AChE and BChE hydrolysis of AA-CHOL was determined in 100 mM phosphate buffer, pH 7.5 at 25 °C, the AA-CHOL concentration was 1 mM, the incubation time was 40 min. The enzyme concentrations were 0.02 U/mL in the sample. The reverse phase HPLC method was used to estimate the hydrolysis of AA-CHOL. As a control, acetylthiocholine iodide (ATCh) hydrolysis was determined in the same conditions.
T1 sequence (P22303 32-617 isoform P22303-2 limits assumed): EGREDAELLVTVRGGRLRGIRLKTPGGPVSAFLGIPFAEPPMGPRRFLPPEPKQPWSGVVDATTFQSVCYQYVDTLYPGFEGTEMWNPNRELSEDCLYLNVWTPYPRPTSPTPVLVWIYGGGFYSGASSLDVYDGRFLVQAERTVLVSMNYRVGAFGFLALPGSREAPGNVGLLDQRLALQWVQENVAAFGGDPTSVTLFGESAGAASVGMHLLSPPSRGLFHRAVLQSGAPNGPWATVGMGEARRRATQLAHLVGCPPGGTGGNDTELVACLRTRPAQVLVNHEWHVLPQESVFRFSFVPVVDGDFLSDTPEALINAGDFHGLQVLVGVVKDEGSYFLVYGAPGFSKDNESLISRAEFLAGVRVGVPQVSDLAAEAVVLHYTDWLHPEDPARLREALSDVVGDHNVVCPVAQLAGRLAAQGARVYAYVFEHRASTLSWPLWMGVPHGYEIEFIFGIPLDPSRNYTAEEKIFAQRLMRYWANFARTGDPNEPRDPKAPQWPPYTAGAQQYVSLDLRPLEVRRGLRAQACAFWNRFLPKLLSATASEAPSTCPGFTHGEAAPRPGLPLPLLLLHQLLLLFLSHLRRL

Series [3] deals with T2, equine serum BChE (Equus caballus, UniProt P81908). Kind of series: Hydrolysis of the substance by BChE (HPLC). The format is in vitro ADME, horse. The following applies: 1 mM substance, 0.02 U/mL enzyme, pH 7.5, 25 °C. How it is done:
as §1

Series [4] has as its system A549 lung cancer cells. Conditions: 1 to 10 µM, predominantly after 48 and 72 h; cited from earlier work.
The target in series [5] is T3, α7 nAChR (Homo sapiens, UniProt P36544).
T3 construct: SH-SY5Y cells endogenously expressing α7 nAChR; host or cells: SH-SY5Y
T3 sequence (P36544 23-502): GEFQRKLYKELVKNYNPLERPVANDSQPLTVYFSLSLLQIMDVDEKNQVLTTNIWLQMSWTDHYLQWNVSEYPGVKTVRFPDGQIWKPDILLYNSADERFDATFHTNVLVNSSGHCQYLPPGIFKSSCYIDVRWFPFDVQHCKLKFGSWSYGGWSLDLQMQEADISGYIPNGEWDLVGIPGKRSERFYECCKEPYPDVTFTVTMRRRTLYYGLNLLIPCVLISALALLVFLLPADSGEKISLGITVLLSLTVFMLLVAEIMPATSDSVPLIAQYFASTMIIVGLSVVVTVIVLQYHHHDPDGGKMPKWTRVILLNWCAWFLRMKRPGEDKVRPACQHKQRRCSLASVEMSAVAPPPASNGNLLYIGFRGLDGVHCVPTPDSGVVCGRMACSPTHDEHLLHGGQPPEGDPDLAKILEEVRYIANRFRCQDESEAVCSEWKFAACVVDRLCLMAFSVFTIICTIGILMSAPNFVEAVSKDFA
Kind of series: Ca2+ mobilization (agonist test) in SH-SY5Y cells. Type of series: cell-based. How it is done:
Cells were cultured for two days at 37 °C on black 96-well plates. Immediately before the experiments, cells were incubated with […] Fluo-4AM ester reagent and 1.25 mM probenecid (organic anion transporter inhibitor) for 1 h at room temperature. After the incubation, the cells were washed out with the extracellular solution (140 mM NaCl, 2 mM CaCl2, 2.8 mM KCl, 4 mM MgCl2, 20 mM HEPES, 10 mM glucose; pH 7.4). The last washout was supplied with 10 uM α7 nAChR positive allosteric modulator PNU 120596 and tested compound. The excitation of Fluo-4 achieved at 485 nm and fluorescence registered at 535 nm using Hidex Sense Beta Plus (Turku, Finland) multi-well plate fluorimeter. The calcium rise amplitude was measured from the base level of each well.
(A change in cytosolic calcium serves as a functional read-out for many receptors and channels.)

Series [6] has as its target T1, human erythrocyte AChE. Kind of series: biochemical. The following applies: for IC50: 10 min preincubation, ATCh 1 mM, N = 11, read-out: AChE IC50, inhibition of ATCh hydrolysis.
The target in series [7] is T2, equine serum BChE. Kind of series: biochemical. Conditions: for IC50: 10 min preincubation, ATCh 1 mM, N = 11, read-out: BChE IC50, inhibition of ATCh hydrolysis.
The subject of series [8] is sea urchin Strongylocentrotus droebachiensis and S. purpuratus embryo. Further details: method as in PMID 11443948. Conditions: quenched by QX-222; cited from earlier work.
In series [9] the test system is A549 cells. Kind of series: Caspase activation and apoptosis staining in A549 cells. Conditions: A549, 150 μM. The format is cell-based.
The target of series [10] is T4, mouse muscle nAChR (Mus musculus, UniProt P02716+P04756+P20782).
T4 construct: expressed in transfected cells; host or cells: Xenopus laevis oocytes, cDNA in pRBG4
T4 sequence (P04756 21-457): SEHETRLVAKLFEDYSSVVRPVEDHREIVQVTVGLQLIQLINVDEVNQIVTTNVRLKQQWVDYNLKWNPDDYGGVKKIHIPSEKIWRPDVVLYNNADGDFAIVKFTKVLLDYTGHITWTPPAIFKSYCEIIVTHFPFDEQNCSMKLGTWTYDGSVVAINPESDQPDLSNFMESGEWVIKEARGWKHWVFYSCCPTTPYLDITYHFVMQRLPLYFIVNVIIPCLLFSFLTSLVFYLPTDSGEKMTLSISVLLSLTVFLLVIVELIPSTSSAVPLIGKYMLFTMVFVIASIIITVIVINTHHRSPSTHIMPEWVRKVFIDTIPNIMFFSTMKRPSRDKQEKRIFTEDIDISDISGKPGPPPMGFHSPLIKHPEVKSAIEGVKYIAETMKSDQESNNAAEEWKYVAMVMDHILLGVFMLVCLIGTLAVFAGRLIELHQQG
T4 sequence (P09690 24-501 partner): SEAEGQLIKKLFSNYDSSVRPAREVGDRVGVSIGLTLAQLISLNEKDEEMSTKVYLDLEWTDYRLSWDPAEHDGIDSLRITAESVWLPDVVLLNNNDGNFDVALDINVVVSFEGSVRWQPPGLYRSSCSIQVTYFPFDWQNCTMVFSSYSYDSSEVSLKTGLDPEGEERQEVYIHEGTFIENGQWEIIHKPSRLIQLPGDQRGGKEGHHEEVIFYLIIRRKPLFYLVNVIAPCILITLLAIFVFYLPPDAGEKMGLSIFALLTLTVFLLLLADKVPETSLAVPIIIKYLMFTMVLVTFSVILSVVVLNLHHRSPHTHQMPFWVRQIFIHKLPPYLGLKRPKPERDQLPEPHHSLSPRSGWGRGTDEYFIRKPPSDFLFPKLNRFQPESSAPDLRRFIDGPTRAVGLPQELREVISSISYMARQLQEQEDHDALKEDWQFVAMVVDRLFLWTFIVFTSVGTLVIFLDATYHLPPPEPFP
T4 sequence (P02716 25-520): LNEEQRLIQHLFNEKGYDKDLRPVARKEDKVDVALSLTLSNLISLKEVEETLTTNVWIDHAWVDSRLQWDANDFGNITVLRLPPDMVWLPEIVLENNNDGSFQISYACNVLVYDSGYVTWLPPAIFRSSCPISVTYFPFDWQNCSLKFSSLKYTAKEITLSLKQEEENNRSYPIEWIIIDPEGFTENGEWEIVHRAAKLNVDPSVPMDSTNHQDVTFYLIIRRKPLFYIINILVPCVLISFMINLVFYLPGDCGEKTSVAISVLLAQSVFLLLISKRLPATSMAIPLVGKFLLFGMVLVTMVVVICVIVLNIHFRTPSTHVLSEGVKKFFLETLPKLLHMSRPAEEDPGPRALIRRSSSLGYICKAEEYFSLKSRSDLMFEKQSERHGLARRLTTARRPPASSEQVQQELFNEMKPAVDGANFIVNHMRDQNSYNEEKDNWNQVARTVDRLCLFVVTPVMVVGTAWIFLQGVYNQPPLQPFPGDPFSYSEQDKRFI
T4 sequence (P20782 21-493): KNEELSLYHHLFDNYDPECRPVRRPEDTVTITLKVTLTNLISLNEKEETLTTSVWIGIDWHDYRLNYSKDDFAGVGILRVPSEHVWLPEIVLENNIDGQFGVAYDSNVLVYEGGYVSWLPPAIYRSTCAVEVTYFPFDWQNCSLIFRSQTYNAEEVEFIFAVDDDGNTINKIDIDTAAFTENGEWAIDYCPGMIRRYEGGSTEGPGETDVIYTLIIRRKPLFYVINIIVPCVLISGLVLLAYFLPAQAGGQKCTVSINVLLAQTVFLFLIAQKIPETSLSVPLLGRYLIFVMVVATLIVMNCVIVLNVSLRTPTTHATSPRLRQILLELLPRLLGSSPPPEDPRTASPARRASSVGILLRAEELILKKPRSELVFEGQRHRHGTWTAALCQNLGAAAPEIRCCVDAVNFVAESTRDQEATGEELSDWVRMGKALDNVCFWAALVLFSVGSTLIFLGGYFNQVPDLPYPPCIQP
Kind of series: Two-electrode electrophysiology, ACh-evoked current in Xenopus oocytes. Type of series: cell-based.

For series [11], the target named is T5, α1β3γ2 GABAAR (Mus musculus, UniProt P62812+P63080).
T5 construct: expressed in transfected cells; host or cells: Xenopus oocytes, cDNA in PCI vector
T5 sequence (P62812 28-455): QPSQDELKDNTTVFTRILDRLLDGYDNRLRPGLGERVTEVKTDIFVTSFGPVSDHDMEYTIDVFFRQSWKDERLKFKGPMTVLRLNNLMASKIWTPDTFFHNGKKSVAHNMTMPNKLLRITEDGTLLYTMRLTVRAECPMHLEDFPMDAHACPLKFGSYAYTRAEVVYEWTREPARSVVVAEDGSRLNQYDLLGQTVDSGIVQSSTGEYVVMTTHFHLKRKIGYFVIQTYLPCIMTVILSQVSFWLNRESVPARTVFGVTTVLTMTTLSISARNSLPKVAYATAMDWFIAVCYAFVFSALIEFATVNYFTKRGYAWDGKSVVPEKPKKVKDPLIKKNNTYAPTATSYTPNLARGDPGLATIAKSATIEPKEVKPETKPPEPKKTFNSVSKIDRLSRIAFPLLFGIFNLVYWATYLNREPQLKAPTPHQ
T5 sequence (P63080 26-473): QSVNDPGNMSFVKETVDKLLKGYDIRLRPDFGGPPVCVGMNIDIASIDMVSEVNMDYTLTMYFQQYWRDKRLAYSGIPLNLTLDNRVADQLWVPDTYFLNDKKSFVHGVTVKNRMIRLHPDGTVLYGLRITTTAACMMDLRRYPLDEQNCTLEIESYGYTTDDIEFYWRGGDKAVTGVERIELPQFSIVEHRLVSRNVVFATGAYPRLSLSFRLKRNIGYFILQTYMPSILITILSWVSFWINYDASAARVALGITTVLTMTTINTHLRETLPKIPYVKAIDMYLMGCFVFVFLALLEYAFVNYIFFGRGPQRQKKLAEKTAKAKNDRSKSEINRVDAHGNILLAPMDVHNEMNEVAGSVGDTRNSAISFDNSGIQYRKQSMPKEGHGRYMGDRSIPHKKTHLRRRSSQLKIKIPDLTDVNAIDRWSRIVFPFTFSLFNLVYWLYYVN
T5 sequence (P22723 39-474 partner): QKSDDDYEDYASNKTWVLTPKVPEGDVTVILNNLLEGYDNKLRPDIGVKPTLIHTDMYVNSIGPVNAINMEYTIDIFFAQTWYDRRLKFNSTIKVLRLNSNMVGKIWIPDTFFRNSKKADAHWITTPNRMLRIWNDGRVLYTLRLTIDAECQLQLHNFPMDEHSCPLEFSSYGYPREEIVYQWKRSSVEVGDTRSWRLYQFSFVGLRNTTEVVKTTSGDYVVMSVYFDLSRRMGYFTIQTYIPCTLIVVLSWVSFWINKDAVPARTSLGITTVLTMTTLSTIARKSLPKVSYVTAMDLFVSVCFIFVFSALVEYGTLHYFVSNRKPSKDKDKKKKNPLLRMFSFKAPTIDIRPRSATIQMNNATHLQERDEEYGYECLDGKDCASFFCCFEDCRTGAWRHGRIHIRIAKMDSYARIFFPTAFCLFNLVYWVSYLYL
Kind of series: Electrophysiology, GABA-evoked currents in Xenopus oocytes. Type of series: cell-based. The following applies: up to a concentration of 10 μM.

The test system of series [12] is mouse forelimb grip strength. Kind of series: In vivo myorelaxant activity, forelimb grip strength. Conditions: mice.

T2 sequence (P81908 whole entry): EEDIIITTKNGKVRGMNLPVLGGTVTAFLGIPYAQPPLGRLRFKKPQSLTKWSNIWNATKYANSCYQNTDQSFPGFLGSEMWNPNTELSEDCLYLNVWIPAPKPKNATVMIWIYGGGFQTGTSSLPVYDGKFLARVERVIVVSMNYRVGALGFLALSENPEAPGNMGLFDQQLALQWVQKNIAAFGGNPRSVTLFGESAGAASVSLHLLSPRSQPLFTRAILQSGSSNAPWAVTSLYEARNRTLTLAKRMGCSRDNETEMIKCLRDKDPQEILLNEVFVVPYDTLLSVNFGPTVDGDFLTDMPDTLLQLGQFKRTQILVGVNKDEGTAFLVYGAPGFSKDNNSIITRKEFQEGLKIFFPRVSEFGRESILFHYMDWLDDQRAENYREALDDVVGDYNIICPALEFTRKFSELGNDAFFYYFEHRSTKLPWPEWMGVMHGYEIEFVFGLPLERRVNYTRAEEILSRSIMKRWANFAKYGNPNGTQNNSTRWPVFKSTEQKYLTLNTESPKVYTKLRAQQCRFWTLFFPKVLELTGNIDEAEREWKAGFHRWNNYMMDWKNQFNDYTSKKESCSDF

In the case of `CN1CCC[C@H]1c1cccnc1` [Nicotine, reference compound], the “effect on A549 proliferation” value in series [1] (15 μM) is on record as “slightly decreased”. The “effect on the cytotoxicity of Ol-CHOL” value in [1] (A549, 90 or 100 μM of Ol-CHOL) is “did not affect the cytotoxicity”.
As for `CC(=O)SCC[N+](C)(C)C.[I-]` [ATCh, acetylthiocholine iodide, reference compound], in [2], the “hydrolysis by AChE” value is “fully hydrolyzed”. The “hydrolysis by BChE” value in series [3] (40 min) was “fully hydrolyzed”.
Take `CCN1C[C@]2(COC(=O)c3ccccc3N3C(=O)C[C@H](C)C3=O)CC[C@H](OC)[C@@]34[C@@H]5C[C@H]6[C@H](OC)[C@@H]5[C@](O)(C[C@@H]6OC)[C@@](O)([C@@H](OC)[C@H]23)[C@@H]14` [methyllycaconitine, reference compound]: the “effect on A549 proliferation” value in [1] (up to the concentration of 10 μM) is “did not affect”. Besides, the “effect on proliferation of the A549 cells” value in [4] is reported as “inhibits the proliferation”.
Turning to `CC/C=C\C/C=C\C/C=C\C/C=C\C/C=C\C/C=C\CCC(=O)OCC[N+](C)(C)C` [DHA-CHOL, docosahexaenoylcholine], the “induction of rise in intracellular Ca2+ (agonistic properties)” value (shortened to “induction of rise in intracellular Ca2+”) in [5] is “showed no agonistic properties”. Further, the “AChE inhibitory activity” value in series [6] was “Neither Ln-CHOL nor DHA-CHOL had noticeable inhibitory activity”. Further, the half-inhibitory concentration (IC50) in [6] and in series [7] was greater than 300 µM throughout. Further, the “decrease of A549 viability” value in [1] was “inactive”. Besides, in series [8], the “effect on sea urchin larva” value is “dose-dependently induced the larva immobilization and cell lysis”.
Take `CCCCCCCC/C=C\CCCCCCCC(=O)OCC[N+](C)(C)C` [Ol-CHOL]: in series [9], the “phosphatidylserine exposure on the membrane” value was “phosphatidylserine exposure on the membrane”. For the same compound, in series [9] (5 h), the “caspase 3 activation” value was “activation”, the “caspase 8 activation” value is “not caspase 8 activation” and the “caspase 9 activation” value is “activation”. For the same compound, in [1], the “decrease of A549 viability” value came out at 45% and the “decrease of cell viability, dose-dependent, maximum” value (shortened to “decrease of cell viability”) was “up to 45%”.
Take `CCCCC/C=C\C/C=C\C/C=C\C/C=C\CCCC(=O)OCC[N+](C)(C)C` [AA-CHOL, Arachidonoylcholine]: the “induction of rise in intracellular Ca2+” value in series [5] is listed as “showed no agonistic properties”. Besides, the values for the half-inhibitory concentration (IC50) in [10], in series [6] and in [7] were 3.16 ± 0.26 µM, 90 ± 1 µM and 170 ± 16 µM, respectively. Further, the “functional inhibition of α1β3γ2 GABAAR” value in [11] is reported as “no functional inhibition”. Also, the “muscle relaxant effect, grip strength vs control” value in series [12] (injection into front paws (intramuscular) 0.5, 1 and 4 mg/kg, 15 min to 4 h) is on record as “no differences from the control group; also recorded: no difference from the control; also recorded: does not produce a significant muscle relaxation”; in [12] (subcutaneous injection 10 and 30 mg/kg, up to 240 min) it was “No differences with the respective controls; also recorded: no substance activity”. Moreover, in series [2], the “hydrolysis by AChE” value is recorded as “not hydrolyzed”. Besides, the “hydrolysis by BChE” value in [3] (during 40 min) is listed as “up to 30%”. In series [6] (steady-state kinetics), the “type of AChE inhibition” value is “mixed type mechanism; also recorded: mixed-type inhibition”. Also, the “αKi (noncompetitive component), AChE” value in series [6] (steady-state, Lineweaver-Burk) amounted to 51.4 ± 4.1 µM. In addition, the inhibition constant (Ki) (as a rule, the equilibrium dissociation constant of an inhibitor or competing ligand from its target) in [6] (steady-state, Lineweaver-Burk, read-out: Ki (competitive component), AChE) came to 16.7 ± 1.5 µM; in series [7] (steady-state, Lineweaver-Burk, read-out: Ki (competitive component), BChE), 70.5 ± 6.3 µM. Further, the “type of BChE inhibition” value in [7] (steady-state kinetics) is listed as “mixed type mechanism; also recorded: mixed-type inhibition”. For the same compound, in series [7] (steady-state, Lineweaver-Burk), the “αKi (noncompetitive component), BChE” value was determined as 214 ± 17 µM. In series [1], the “decrease of A549 viability” value came to 10%. Also, the “decrease of cell viability” value in series [1] is given as “up to 45%”. In addition, in series [8], the “effect on sea urchin larva” value was “dose-dependently induced the larva immobilization and cell lysis”.
`CCCCC/C=C\C/C=C\CCCCCCCC(=O)OCC[N+](C)(C)C` [Ln-CHOL]: the “induction of rise in intracellular Ca2+” value in [5] is “showed no agonistic properties”. For the same compound, in [6], the “AChE inhibitory activity” value is on record as “Neither Ln-CHOL nor DHA-CHOL had noticeable inhibitory activity” and the half-maximal inhibitory concentration (IC50) (commonly the concentration that gives 50% inhibition) was greater than 300 µM. Moreover, the IC50 in series [7] is greater than 300 µM. In addition, in [1], the “decrease of A549 viability” value was determined as 10% and the “decrease of cell viability” value was “up to 45%”.
